Assay results reported in US10770169B2, “Method of providing a treatment to a subject based on a dynamic pathway map” (THE REGENTS OF THE UNIVERSITY OF CALIFORNIA, priority 2010, dated 2020).
Where two headings read alike, the source gives them in different places.

System: panel of 55 breast cancer cell lines
Assay: Cell growth inhibition assay (Cell Titer Glo, 72 h, 9 doses; GI50, TGI, LC50)
Format: cell-based, human
Details: Homo sapiens, read-out: GI50 (converted)

## CCN(CC)CCNC(=O)c1c(C)[nH]c(/C=C2\C(=O)Nc3ccc(F)cc32)c1C [Sunitinib Malate]
600MPE cell line, censored GI50 values
  GI50: 4.27 µM
AU565, AU565 cell line, censored GI50 values
  GI50: 3.8 µM
AU565, cell line AU565
  GI50: 3.8 µM
BT-20, BT20 cell line, censored GI50 values
  GI50: 16.6 µM
BT-20, cell line BT20
  GI50: 16.6 µM
BT-474, BT474 cell line, censored GI50 values
  GI50: 17 µM
BT-474, cell line BT474
  GI50: 17 µM
BT-483, BT483 cell line, censored GI50 values
  GI50: 18.6 µM
BT-483, cell line BT483
  GI50: 18.6 µM
BT-549, BT549 cell line, censored GI50 values
  GI50: 5.13 µM
BT-549, cell line BT549
  GI50: 5.13 µM
CAMA-1, CAMA1 cell line, censored GI50 values
  GI50: 8.71 µM
CAMA-1, cell line CAMA1
  GI50: 8.71 µM
HCC38, HCC38 cell line, censored GI50 values
  GI50: 5.75 µM
HCC38, cell line HCC38
  GI50: 5.75 µM
HCC70, HCC70 cell line, censored GI50 values
  GI50: 2.51 µM
HCC70, cell line HCC70
  GI50: 2.51 µM
HCC202, HCC202 cell line, censored GI50 values
  GI50: 9.33 µM
HCC202, cell line HCC202
  GI50: 9.33 µM
HCC1143, HCC1143 cell line, censored GI50 values
  GI50: 6.92 µM
HCC1143, cell line HCC1143
  GI50: 6.92 µM
HCC1187, HCC1187 cell line, censored GI50 values
  GI50: 5.01 µM
HCC1187, cell line HCC1187
  GI50: 5.01 µM
HCC1395, HCC1395 cell line, censored GI50 values
  GI50: 4.68 µM
HCC1395, cell line HCC1395
  GI50: 4.68 µM
HCC1419, HCC1419 cell line, censored GI50 values
  GI50: 17.8 µM
HCC1419, cell line HCC1419
  GI50: 17.8 µM
HCC1428, HCC1428 cell line, censored GI50 values
  GI50: 5.13 µM
HCC1428, cell line HCC1428
  GI50: 5.13 µM
HCC1500, HCC1500 cell line, censored GI50 values
  GI50: 6.46 µM
HCC1500, cell line HCC1500
  GI50: 6.46 µM
HCC1806, HCC1806 cell line, censored GI50 values
  GI50: 5.37 µM
HCC1806, cell line HCC1806
  GI50: 5.37 µM
HCC1937, HCC1937 cell line, censored GI50 values
  GI50: 6.92 µM
HCC1937, cell line HCC1937
  GI50: 6.92 µM
HCC1954, HCC1954 cell line, censored GI50 values
  GI50: 5.62 µM
HCC1954, cell line HCC1954
  GI50: 5.62 µM
HCC2185 cell line, censored GI50 values
  GI50: 20.4 µM
HCC3153 cell line, censored GI50 values
  GI50: 11 µM
LY2 cell line, censored GI50 values
  GI50: 6.46 µM
MCF7, MCF7 cell line, censored GI50 values
  GI50: 5.89 µM
MCF7, cell line MCF7
  GI50: 5.89 µM
MDA-MB-134-VI, MDAMB134VI cell line, censored GI50 values
  GI50: 10.7 µM
MDA-MB-157, MDAMB157 cell line, censored GI50 values
  GI50: 6.31 µM
MDA-MB-175-VII, MDAMB175VII cell line, censored GI50 values
  GI50: 5.5 µM
MDA-MB-231, MDAMB231 cell line, censored GI50 values
  GI50: 3.63 µM
MDA-MB-361, MDAMB361 cell line, censored GI50 values
  GI50: 11.7 µM
MDA-MB-415, MDAMB415 cell line, censored GI50 values
  GI50: 5.62 µM
MDA-MB-436, MDAMB436 cell line, censored GI50 values
  GI50: 11.2 µM
MDA-MB-453, MDAMB453 cell line, censored GI50 values
  GI50: 4.17 µM
MDA-MB-468, MDAMB468 cell line, censored GI50 values
  GI50: 4.47 µM
SK-BR-3, SKBR3 cell line, censored GI50 values
  GI50: 6.76 µM
SUM52PE, SUM52PE cell line, censored GI50 values
  GI50: 1.15 µM
SUM149PT, SUM149PT cell line, censored GI50 values
  GI50: 2.69 µM
SUM185PE, SUM185PE cell line, censored GI50 values
  GI50: 1.05 µM
SUM225CWN, SUM225CWN cell line, censored GI50 values
  GI50: 6.31 µM
SUM1315MO2, SUM1315MO2 cell line, censored GI50 values
  GI50: 7.41 µM
SUM-159-PT, SUM159PT cell line, censored GI50 values
  GI50: 1.55 µM
T47D, T47D cell line, censored GI50 values
  GI50: 8.32 µM
UACC-893, UACC893 cell line, censored GI50 values
  GI50: 0.871 µM
ZR-75-1, ZR751 cell line, censored GI50 values
  GI50: 13.2 µM
ZR-75B, ZR75B cell line, censored GI50 values
  GI50: 7.59 µM
Cell line 600MPE
  GI50: 4.27 µM
Cell line HCC2185
  GI50: 20.4 µM
Cell line HCC3153
  GI50: 11 µM
Cell line LY2
  GI50: 6.46 µM
